Measured values published in publication PMC5672791 (Journal of medicinal chemistry, 2015).
pKi: −log10 of the molar value. Read-outs that look alike come from different tables or passages of the source. Values belong to the compound of their own block, whether it stands above or below them. Where a SMILES comes first, the peptide text is derived from it. Bridges are numbered along the chain shown (N, C = ends). Where no end group is shown, it is not given here. [ ]: non-standard residue; d: D form.

Experiments:
[1] = biological target: mMC3R (Mus musculus, UniProt P33033); assay type: cell-based
[2] = biological target: T1, mMC4R (Mus musculus, UniProt P56450); assay type: cell-based
[3] = biological target: mMC4R (Mus musculus) (UniProt P56450); test: Schild analysis; settings: cited from earlier work
[4] = biological target: T1, mMC4R; settings: cited from earlier work

Sequence of mMC3R (P33033 whole entry): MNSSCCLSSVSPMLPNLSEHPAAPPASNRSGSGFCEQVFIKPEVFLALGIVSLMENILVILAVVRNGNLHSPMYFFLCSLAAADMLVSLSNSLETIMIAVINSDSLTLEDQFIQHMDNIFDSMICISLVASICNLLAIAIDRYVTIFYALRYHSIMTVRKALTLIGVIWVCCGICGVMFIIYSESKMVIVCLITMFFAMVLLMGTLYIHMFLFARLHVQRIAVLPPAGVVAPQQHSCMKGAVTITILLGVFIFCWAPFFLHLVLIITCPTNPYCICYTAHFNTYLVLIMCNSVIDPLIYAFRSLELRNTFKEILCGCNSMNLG
T1 sequence (P56450 whole entry): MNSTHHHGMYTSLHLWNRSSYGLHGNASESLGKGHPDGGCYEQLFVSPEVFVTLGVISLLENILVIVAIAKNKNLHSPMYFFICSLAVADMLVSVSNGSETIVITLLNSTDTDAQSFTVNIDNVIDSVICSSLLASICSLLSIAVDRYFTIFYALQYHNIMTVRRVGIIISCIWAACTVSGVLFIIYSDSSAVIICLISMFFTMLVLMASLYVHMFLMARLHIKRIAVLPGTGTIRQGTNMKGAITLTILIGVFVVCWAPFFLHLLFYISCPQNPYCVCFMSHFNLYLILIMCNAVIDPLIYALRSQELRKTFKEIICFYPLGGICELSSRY

- fold increased antagonist potency at the mMC3R compared to 6 ([1]; compared to 6): 16 fold
- fold increased antagonist potency at the mMC4R compared to 6 [2]: 5 fold
Compound: C[C@@H]1NC(=O)CNC(=O)[C@H](Cc2ccccc2)NC(=O)[C@H](Cc2ccccc2)NC(=O)[C@H](CCCNC(=N)N)NC(=O)[C@@H]2CCCN2C(=O)[C@H]2CCCN2C(=O)[C@H](Cc2ccccc2)NC1=O [Peptide 21, c[Pro-Arg-Phe-Phe-Gly-Ala-Phe-DPro]]

- no activity at the mMC3R up to (concentration) [1]: > 100 µM
- no activity at the mMC4R up to (concentration) [2]: > 100 µM
Compound: C[C@@H]1NC(=O)[C@H](CC(N)=O)NC(=O)[C@@H]2Cc3ccccc3CN2C(=O)[C@H](Cc2ccccc2)NC(=O)[C@H](CCCNC(=N)N)NC(=O)[C@@H]2CCCN2C(=O)[C@H]2CCCN2C(=O)[C@H](Cc2ccccc2)NC1=O [Peptide 15, c[Pro-Arg-Phe-Tic-Asn-Ala-Phe-DPro]]

Compound: hAGRP(109-118)
- pKi [3]: 6.80

- fold increased antagonist potency at the mMC4R compared to 6 [2]: 4 fold
Compound: C[C@@H]1NC(=O)[C@H](CCCCN)NC(=O)[C@H](Cc2ccccc2)NC(=O)[C@H](Cc2ccccc2)NC(=O)[C@H](CCCNC(=N)N)NC(=O)[C@@H]2CCCN2C(=O)[C@H]2CCCN2C(=O)[C@H](Cc2ccccc2)NC1=O [Peptide 25, c[Pro-Arg-Phe-Phe-Lys-Ala-Phe-DPro]]

- fold increased antagonist potency at the mMC4R compared to 6 [2]: 5 fold
Compound: C[C@@H]1NC(=O)[C@H](CCCNC(=N)N)NC(=O)[C@H](Cc2ccccc2)NC(=O)[C@H](Cc2ccccc2)NC(=O)[C@H](CCCNC(=N)N)NC(=O)[C@@H]2CCCN2C(=O)[C@H]2CCCN2C(=O)[C@H](Cc2ccccc2)NC1=O [Peptide 26, c[Pro-Arg-Phe-Phe-Arg-Ala-Phe-DPro]] (cyclo(RFFRAF[dP]P))

- no activity at the mMC3R up to (concentration) [1]: > 100 µM
- no activity at the mMC4R up to (concentration) [2]: > 100 µM
Compound: C[C@@H]1NC(=O)[C@H](CC(N)=O)NC(=O)[C@H](Cc2ccccc2)NC(=O)[C@@H]2Cc3ccccc3CN2C(=O)[C@H](CCCNC(=N)N)NC(=O)[C@@H]2CCCN2C(=O)[C@H]2CCCN2C(=O)[C@H](Cc2ccccc2)NC1=O [Peptide 8, c[Pro-Arg-Tic-Phe-Asn-Ala-Phe-DPro]]

- fold decreased antagonist potency at the mMC3R compared to 6 ([1]; compared to 6): 6 fold
Compound: C[C@@H]1NC(=O)[C@H](CC(N)=O)NC(=O)[C@H](Cc2cccc3ccccc23)NC(=O)[C@H](Cc2ccccc2)NC(=O)[C@H](CCCNC(=N)N)NC(=O)[C@@H]2CCCN2C(=O)[C@H]2CCCN2C(=O)[C@H](Cc2ccccc2)NC1=O [Peptide 19, c[Pro-Arg-Phe-Nal(1′)-Asn-Ala-Phe-DPro]]

Compound: YCRFFNAFCY (disulfide 2-9) [hAGRP (109-118)]
- mMC4R antagonist pA2 [4]: 6.8
- mMC4R antagonist pA2 ([4]; previously reported values): 6.8±0.2

- no activity at the mMC3R up to (concentration) [1]: > 100 µM
Compound: C[C@@H]1NC(=O)[C@H](CC(N)=O)NC(=O)[C@H](Cc2ccc3ccccc3c2)NC(=O)[C@H](Cc2ccccc2)NC(=O)[C@H](CCCNC(=N)N)NC(=O)[C@@H]2CCCN2C(=O)[C@H]2CCCN2C(=O)[C@H](Cc2ccccc2)NC1=O [Peptide 20, c[Pro-Arg-Phe-Nal(2′)-Asn-Ala-Phe-DPro]]

- fold decreased antagonist potency at the mMC4R compared to 6 [2]: 5 fold
Compound: C[C@@H]1NC(=O)[C@H](CC(N)=O)NC(=O)[C@H](Cc2ccccc2)NC(=O)[C@H](Cc2ccc3ccccc3c2)NC(=O)[C@H](CCCNC(=N)N)NC(=O)[C@@H]2CCCN2C(=O)[C@H]2CCCN2C(=O)[C@H](Cc2ccccc2)NC1=O [Peptide 13, c [Pro-Arg-Nal(2′)-Phe-Asn-Ala-Phe-DPro]]

- fold decreased antagonist potency at the mMC4R compared to 6 [2]: 5 fold
Compound: C[C@@H]1NC(=O)[C@H](CC(N)=O)NC(=O)[C@H](Cc2ccccc2)NC(=O)[C@H](CCc2ccccc2)NC(=O)[C@H](CCCNC(=N)N)NC(=O)[C@@H]2CCCN2C(=O)[C@H]2CCCN2C(=O)[C@H](Cc2ccccc2)NC1=O [Peptide 10, c[Pro-Arg-hPhe-Phe-Asn-Ala-Phe-DPro]]
